Results published in PubChem BioAssay (NCI).
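Where inhibition never reached the appropriate level, the endpoint shown equals the highest concentration tested. Otherwise, values were interpolated linearly from a five-concentration, 48-hour dose response in 96-well plates. GI50: concentration for 50% inhibition of growth. TGI is the concentration that stops growth completely.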

Key:
Assay in all cases: DTP human tumour cell line panel, 48 h
[1] = test system: ACHN renal
[2] = test system: SN12C renal
[3] = test system: RXF 393 renal
[4] = test system: OVCAR-4 ovarian
[5] = test system: SK-MEL-28 melanoma
[6] = test system: SW-620 colon
[7] = test system: A498 renal
[8] = test system: MDA-MB-435
[9] = test system: MOLT-4 leukemia
[10] = test system: PC-3 prostate
[11] = test system: HL-60(TB) leukemia
[12] = test system: 786-0 renal
[13] = test system: UACC-257 melanoma
[14] = test system: EKVX NSCLC
[15] = test system: DU-145 prostate
[16] = test system: HCT-116 colon
[17] = test system: OVCAR-8 ovarian
[18] = test system: HOP-62 NSCLC
[19] = test system: NCI-H522 lung
[20] = test system: HCT-15 colon
[21] = test system: IGROV1 ovarian
[22] = test system: OVCAR-3 ovarian
[23] = test system: NCI/ADR-RES ovarian
[24] = test system: K-562 leukemia
[25] = test system: NCI-H226 lung
[26] = test system: LOX IMVI melanoma
[27] = test system: SNB-19 CNS
[28] = test system: UACC-62 melanoma
[29] = test system: BT-549 breast
[30] = test system: U251 CNS
[31] = test system: SK-MEL-2 melanoma
[32] = test system: MALME-3M melanoma
[33] = test system: HT29 colon
[34] = test system: CCRF-CEM leukemia
[35] = test system: MDA-MB-231 breast
[36] = test system: RPMI-8226 leukemia
[37] = test system: SR leukemia
[38] = test system: TK-10 renal
[39] = test system: COLO 205 colon
[40] = test system: SF-295 CNS
[41] = test system: MCF7 breast
[42] = test system: SK-OV-3 ovarian
[43] = test system: UO-31 renal
[44] = test system: CAKI-1 renal
[45] = test system: SNB-75 CNS
[46] = test system: OVCAR-5 ovarian
[47] = test system: SF-268 CNS
[48] = test system: HCC-2998 colon
[49] = test system: NCI-H23 lung
[50] = test system: NCI-H460 lung
[51] = test system: HS 578T breast
[52] = test system: SF-539 CNS
[53] = test system: HOP-92 NSCLC
[54] = test system: M14 melanoma
[55] = test system: SK-MEL-5 melanoma

Q: `COc1cccc2c1C(=O)c1c(O)c3c(c(O)c1C2=O)C[C@](O)(C(=O)CO)C[C@H]3O[C@@H]1C[C@@H](NC(=O)CCCCCN(C)C2(c3ccc(F)cc3)CC3CCC2C3)[C@H](O)[C@@H](C)O1` (stereo not given in full) was tested. Which GI50 [1] did it give?
A: 1.75 µM

Q: What about the TGI [1] of the same compound?
A: 6.66 µM

Q: And the GI50 [2]?
A: 5.75 µM

Q: And the TGI [2]?
A: 14.5 µM

Q: And the GI50 [3]?
A: 2.71 µM

Q: And the TGI [3]?
A: 10.5 µM

Q: What about the GI50 [4] of the same compound?
A: 1.09 µM

Q: And the TGI [4]?
A: 2.69 µM

Q: What about the GI50 [5] of the same compound?
A: 7.25 µM

Q: And the TGI [5]?
A: 15.7 µM

Q: And the GI50 [6]?
A: 0.76 µM

Q: And the TGI [6]?
A: 1.85 µM

Q: And the GI50 [7]?
A: 5.92 µM

Q: What about the TGI [7] of the same compound?
A: 12.4 µM

Q: What about the GI50 [8] of the same compound?
A: 8.67 µM

Q: What about the TGI [8] of the same compound?
A: 19.4 µM

Q: And the GI50 [9]?
A: 0.304 µM

Q: And the TGI [9]?
A: 2.61 µM

Q: What about the GI50 [10] of the same compound?
A: 0.994 µM

Q: And the TGI [10]?
A: 2.06 µM

Q: What about the GI50 [11] of the same compound?
A: 6.59 µM

Q: And the TGI [11]?
A: 16.1 µM

Q: And the GI50 [12]?
A: 0.82 µM

Q: And the TGI [12]?
A: 1.61 µM

Q: And the GI50 [13]?
A: 0.931 µM

Q: And the TGI [13]?
A: 1.73 µM

Q: What about the GI50 [14] of the same compound?
A: 7.85 µM

Q: What about the TGI [14] of the same compound?
A: 17.7 µM

Q: What about the GI50 [15] of the same compound?
A: 1.13 µM

Q: What about the TGI [15] of the same compound?
A: 4.24 µM

Q: What about the GI50 [16] of the same compound?
A: 0.729 µM

Q: And the TGI [16]?
A: 1.51 µM

Q: What about the GI50 [17] of the same compound?
A: 1.18 µM

Q: What about the TGI [17] of the same compound?
A: 3.94 µM

Q: What about the GI50 [18] of the same compound?
A: 2.03 µM

Q: What about the TGI [18] of the same compound?
A: 10 µM

Q: And the GI50 [19]?
A: 0.707 µM

Q: And the TGI [19]?
A: 1.57 µM

Q: And the GI50 [20]?
A: 2.19 µM

Q: And the TGI [20]?
A: 9.11 µM

Q: And the GI50 [21]?
A: 6.59 µM

Q: And the TGI [21]?
A: 14.8 µM

Q: And the GI50 [22]?
A: 1.41 µM

Q: What about the TGI [22] of the same compound?
A: 4.27 µM

Q: And the GI50 [23]?
A: 13 µM

Q: What about the TGI [23] of the same compound?
A: 50 µM

Q: What about the GI50 [24] of the same compound?
A: 1.11 µM

Q: And the TGI [24]?
A: 2.47 µM

Q: And the GI50 [25]?
A: 6.68 µM

Q: And the TGI [25]?
A: 16.9 µM

Q: What about the GI50 [26] of the same compound?
A: 5.17 µM

Q: What about the TGI [26] of the same compound?
A: 13.1 µM

Q: What about the GI50 [27] of the same compound?
A: 6.48 µM

Q: And the TGI [27]?
A: 14.8 µM

Q: And the GI50 [28]?
A: 6.56 µM

Q: And the TGI [28]?
A: 15.7 µM

Q: What about the GI50 [29] of the same compound?
A: 5.3 µM

Q: What about the TGI [29] of the same compound?
A: 14.2 µM

Q: And the GI50 [30]?
A: 0.739 µM

Q: What about the TGI [30] of the same compound?
A: 1.49 µM

Q: And the GI50 [31]?
A: 1.18 µM

Q: And the TGI [31]?
A: 2.52 µM

Q: What about the GI50 [32] of the same compound?
A: 7.85 µM

Q: What about the TGI [32] of the same compound?
A: 16.9 µM

Q: What about the GI50 [33] of the same compound?
A: 0.676 µM

Q: And the TGI [33]?
A: 1.5 µM

Q: And the GI50 [34]?
A: 1.13 µM

Q: What about the TGI [34] of the same compound?
A: 3.92 µM

Q: And the GI50 [35]?
A: 1 µM

Q: What about the TGI [35] of the same compound?
A: 2.63 µM

Q: And the GI50 [36]?
A: 0.899 µM

Q: And the TGI [36]?
A: 2.25 µM

Q: What about the GI50 [37] of the same compound?
A: 0.223 µM

Q: What about the TGI [37] of the same compound?
A: 1.64 µM

Q: And the GI50 [38]?
A: 0.611 µM

Q: And the TGI [38]?
A: 1.28 µM

Q: What about the GI50 [39] of the same compound?
A: 0.728 µM

Q: And the TGI [39]?
A: 1.65 µM

Q: What about the GI50 [40] of the same compound?
A: 5.79 µM

Q: What about the TGI [40] of the same compound?
A: 13.3 µM

Q: What about the GI50 [41] of the same compound?
A: 0.966 µM

Q: What about the TGI [41] of the same compound?
A: 2.7 µM

Q: And the GI50 [42]?
A: 7.46 µM

Q: What about the TGI [42] of the same compound?
A: 14.7 µM

Q: And the GI50 [43]?
A: 6.1 µM

Q: And the TGI [43]?
A: 12.5 µM

Q: What about the GI50 [44] of the same compound?
A: 6.82 µM

Q: And the TGI [44]?
A: 13.3 µM

Q: And the GI50 [45]?
A: 3.28 µM

Q: What about the TGI [45] of the same compound?
A: 11.2 µM

Q: And the GI50 [46]?
A: 0.988 µM

Q: And the TGI [46]?
A: 2.19 µM

Q: What about the GI50 [47] of the same compound?
A: 5.38 µM

Q: What about the TGI [47] of the same compound?
A: 14.9 µM

Q: And the GI50 [48]?
A: 1.03 µM

Q: What about the TGI [48] of the same compound?
A: 3.37 µM

Q: And the GI50 [49]?
A: 3.49 µM

Q: And the TGI [49]?
A: 10.7 µM

Q: And the GI50 [50]?
A: 0.555 µM

Q: What about the TGI [50] of the same compound?
A: 1.37 µM

Q: And the GI50 [51]?
A: 8.26 µM

Q: And the TGI [51]?
A: 21.6 µM

Q: And the GI50 [52]?
A: 3.67 µM

Q: And the TGI [52]?
A: 10.3 µM

Q: And the GI50 [53]?
A: 5.36 µM

Q: What about the TGI [53] of the same compound?
A: 12.5 µM

Q: And the GI50 [54]?
A: 3.48 µM

Q: What about the TGI [54] of the same compound?
A: 14.3 µM

Q: What about the GI50 [55] of the same compound?
A: 7.65 µM

Q: What about the TGI [55] of the same compound?
A: 15.6 µM
